Assay results: paper PMC11532494 (Nature Communications, 2024)
Several values for one entry are separate records, joined by “and”; a condition that tells them apart may be missing. Equal values may be shown once.

Legend:
RwDmhA (1b) = RwDmhA (1b) (Rhizorhabdus wittichii, UniProt A0A067XIQ6); format: biochemical; conditions: RwDmhA (1b) 3µM; single samples (replicates)
KpHdaH (1b) = KpHdaH (1b) (Klebsiella pneumoniae, UniProt A0A377Z5F6); format: biochemical; conditions: KpKDAC (1b); single samples (replicates)
VcHdaH (5b) = assay: Acetyl-polyamine deacetylase assay; format: biochemical, Vibrio cholerae; conditions: VcHdaH (5b) 6µM; single samples (replicates)
PA1409 = PA1409 (Pseudomonas aeruginosa, UniProt Q9I3T5); assay: Acetyl-polyamine deacetylase assay (positive control); format: biochemical; conditions: sheet Figure 2d; for A1-A2: absorbance difference between the two time points; for (A1-A2)-B: absorbance difference minus mean blank
RsPrpH (1b) = assay: Acetyl-polyamine deacetylase assay; format: biochemical, Rhizorhabdus sp.; conditions: RsPrpH 3µM; single samples (replicates)
BsAcuC (2c) = target: T1, BsAcuC (2c) (Bacillus subtilis, UniProt P39067); assay: Acetyl-polyamine deacetylase assay; format: biochemical; conditions: BsAcuC (2c) 3µM; single samples (replicates)
T1 construct: made in house; host or cells: E. coli BL21 (DE3)
T1 sequence (P39067 1-387): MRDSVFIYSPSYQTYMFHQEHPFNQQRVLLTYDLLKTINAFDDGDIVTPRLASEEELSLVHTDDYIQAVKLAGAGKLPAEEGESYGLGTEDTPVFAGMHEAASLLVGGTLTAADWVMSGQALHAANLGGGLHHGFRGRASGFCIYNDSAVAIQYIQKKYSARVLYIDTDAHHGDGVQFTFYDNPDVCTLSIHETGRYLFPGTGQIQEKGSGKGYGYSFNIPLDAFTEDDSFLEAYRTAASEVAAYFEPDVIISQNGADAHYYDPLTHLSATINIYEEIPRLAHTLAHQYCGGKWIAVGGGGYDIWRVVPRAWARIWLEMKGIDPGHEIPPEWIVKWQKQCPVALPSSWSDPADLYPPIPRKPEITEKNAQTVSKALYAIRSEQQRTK

VsHdaH (1b) = format: biochemical, Vibrio sp.; conditions: VsHdaH (1b) 3µM; single samples (replicates)
LcApaH (3) = LcApaH (3) (Legionella cherrii, UniProt A0A0W0SGS1); format: biochemical
PsApaH (4) = PsApaH (4) (Pseudomonas sp. M30-35, UniProt A0A1Y0KY79); assay: Acetyl-polyamine deacetylase assay; format: biochemical; conditions: single samples (replicates)
PsApaH (4), sequence (A0A1Y0KY79 1-342 limits assumed): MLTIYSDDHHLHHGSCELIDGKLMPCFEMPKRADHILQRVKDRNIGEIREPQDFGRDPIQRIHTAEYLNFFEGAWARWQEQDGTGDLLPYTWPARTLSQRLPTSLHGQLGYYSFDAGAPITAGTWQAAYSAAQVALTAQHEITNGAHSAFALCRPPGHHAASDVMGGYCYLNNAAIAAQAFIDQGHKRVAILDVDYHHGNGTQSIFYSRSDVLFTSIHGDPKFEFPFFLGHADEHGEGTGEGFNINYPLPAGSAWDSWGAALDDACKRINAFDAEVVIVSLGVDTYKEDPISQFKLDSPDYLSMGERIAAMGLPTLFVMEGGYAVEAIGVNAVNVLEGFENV

KpHdaH (1b), sequence (A0A377Z5F6 1-371): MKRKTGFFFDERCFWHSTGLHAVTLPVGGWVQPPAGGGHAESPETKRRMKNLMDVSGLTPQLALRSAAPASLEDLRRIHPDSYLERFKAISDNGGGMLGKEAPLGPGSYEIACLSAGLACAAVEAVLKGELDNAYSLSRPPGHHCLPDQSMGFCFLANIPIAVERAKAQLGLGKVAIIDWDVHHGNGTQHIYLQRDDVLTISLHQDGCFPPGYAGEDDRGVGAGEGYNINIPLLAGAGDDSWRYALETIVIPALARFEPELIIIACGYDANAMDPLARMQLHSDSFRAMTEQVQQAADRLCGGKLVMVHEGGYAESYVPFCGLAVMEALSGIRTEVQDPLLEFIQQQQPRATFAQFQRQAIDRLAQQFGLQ
RwDmhA (1b), sequence (A0A067XIQ6 1-369): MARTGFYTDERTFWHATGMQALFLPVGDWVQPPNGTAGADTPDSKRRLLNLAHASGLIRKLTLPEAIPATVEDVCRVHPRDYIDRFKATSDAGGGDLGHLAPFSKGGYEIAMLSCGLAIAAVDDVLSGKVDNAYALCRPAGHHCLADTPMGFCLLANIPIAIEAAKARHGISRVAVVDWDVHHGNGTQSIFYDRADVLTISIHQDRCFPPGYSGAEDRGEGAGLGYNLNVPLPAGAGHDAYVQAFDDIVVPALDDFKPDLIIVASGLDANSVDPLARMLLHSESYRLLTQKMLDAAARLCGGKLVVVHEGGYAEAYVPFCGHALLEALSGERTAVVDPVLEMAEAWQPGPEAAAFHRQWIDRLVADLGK
PA1409, sequence (Q9I3T5 whole entry): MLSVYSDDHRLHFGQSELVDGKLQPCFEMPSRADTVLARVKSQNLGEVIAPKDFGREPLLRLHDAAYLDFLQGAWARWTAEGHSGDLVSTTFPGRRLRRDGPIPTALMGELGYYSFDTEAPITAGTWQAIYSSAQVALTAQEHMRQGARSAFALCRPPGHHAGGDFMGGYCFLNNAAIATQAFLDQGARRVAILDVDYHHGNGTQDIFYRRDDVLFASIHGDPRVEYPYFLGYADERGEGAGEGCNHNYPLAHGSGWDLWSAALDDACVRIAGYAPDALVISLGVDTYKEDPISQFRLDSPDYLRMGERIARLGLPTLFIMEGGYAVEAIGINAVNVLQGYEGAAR
LcApaH (3), sequence (A0A0W0SGS1 1-425): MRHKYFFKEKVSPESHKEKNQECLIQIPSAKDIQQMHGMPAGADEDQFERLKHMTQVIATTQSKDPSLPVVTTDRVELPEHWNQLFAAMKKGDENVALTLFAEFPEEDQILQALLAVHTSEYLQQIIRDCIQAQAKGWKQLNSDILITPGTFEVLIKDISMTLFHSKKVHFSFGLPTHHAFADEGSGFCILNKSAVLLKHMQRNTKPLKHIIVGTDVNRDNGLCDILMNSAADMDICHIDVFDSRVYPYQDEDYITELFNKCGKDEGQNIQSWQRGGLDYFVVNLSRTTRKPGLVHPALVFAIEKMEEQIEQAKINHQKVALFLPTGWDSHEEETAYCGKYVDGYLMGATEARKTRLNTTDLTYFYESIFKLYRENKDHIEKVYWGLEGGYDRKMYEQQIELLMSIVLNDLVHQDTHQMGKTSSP

Compound | acetate released, g/l (RwDmhA (1b)) | acetate released, mM (RwDmhA (1b)) | mM normalized to enzyme concentration (RwDmhA (1b)) | acetate released, g/l (KpHdaH (1b)) | mM normalized to enzyme concentration (KpHdaH (1b)) | acetate released, g/l (VcHdaH (5b)) | acetate released, mM (VcHdaH (5b)) | mM normalized to enzyme concentration (VcHdaH (5b)) | A1-A2 (PA1409) | (A1-A2)-B (PA1409) | acetate released, g/l (RsPrpH (1b)) | acetate released, mM (RsPrpH (1b)) | mM normalized to enzyme concentration (RsPrpH (1b)) | acetate released, g/l (BsAcuC (2c)) | acetate released, mM (BsAcuC (2c)) | mM normalized to enzyme concentration (BsAcuC (2c)) | acetate released, g/l (VsHdaH (1b)) | acetate released, mM (VsHdaH (1b)) | mM normalized to enzyme concentration (VsHdaH (1b)) | also measured
CC(=O)NCCCCN [N1-acetyl-putrescine] | 0.001436 g/L and 0.006919 g/L and 0.0009138 g/L | 0.02391 mM and 0.1152 mM and 0.01522 mM | 0.007971 mM and 0.03841 mM and 0.005072 mM | 0.01615 g/L and 0.02135 g/L and 0.02198 g/L | 0.02105 mM and 0.02784 mM and 0.02865 mM | -0.003786 g/L and 0.0001305 g/L and 0.01136 g/L | -0.06304 mM and 0.002174 mM and 0.1891 mM | -0.01051 mM and 0.0003623 mM and 0.03152 mM | 0.278 and 0.275 | 0.21 and 0.207 | 0.003525 g/L and 0.00483 g/L and 0.003003 g/L | 0.0587 mM and 0.08044 mM and 0.05 mM | 0.01957 mM and 0.02681 mM and 0.01667 mM | 0.001436 g/L and 0.00248 g/L and -0.003264 g/L | 0.02391 mM and 0.0413 mM and -0.05435 mM | 0.007971 mM and 0.01377 mM and -0.01812 mM | 0.001436 g/L and 0.0003916 g/L and -0.0006527 g/L | 0.02391 mM and 0.006522 mM and -0.01087 mM | 0.007971 mM and 0.002174 mM and -0.003623 mM | acetate released, mM (KpHdaH (1b)): 0.2105 mM and 0.2784 mM and 0.2865 mM; acetate released, g/l (LcApaH (3)): 0.002824 g/L and 0.001479 g/L; acetate released, mM (LcApaH (3)): 0.04702 mM and 0.02463 mM; mM normalized to enzyme concentration (LcApaH (3)): 0.03135 mM and 0.01642 mM
CC(=O)NCCCNCCCCN [N1-acetyl-spermidine] | -0.0001305 g/L and -0.0003916 g/L | -0.002174 mM and -0.006522 mM | -0.0007246 mM and -0.002174 mM | 0.007111 g/L and 0.006667 g/L | 0.02368 mM and 0.0222 mM | -0.0009138 g/L and 0.0001305 g/L | -0.01522 mM and 0.002174 mM | -0.002536 mM and 0.0003623 mM | 0.377 and 0.374 | 0.331 and 0.328 | 0.0006527 g/L and 0.002219 g/L | 0.01087 mM and 0.03696 mM | 0.003623 mM and 0.01232 mM | 0.001175 g/L and 0.0003916 g/L | 0.01957 mM and 0.006522 mM | 0.006522 mM and 0.002174 mM | -0.0001305 g/L | -0.002174 mM | -0.0007246 mM | acetate released, g/l (PsApaH (4)): 0.0007937 g/L and 0.001587 g/L; acetate released, mM (PsApaH (4)): 0.01322 mM and 0.02643 mM
